One experiment concerns OCI-AML-2. In words: Cell viability (MTS) assay, OCI-AML-2. It is filed as cell-based. The note with it: Homo sapiens, OCI-AML2; OCI-AML-2, MTS, 72 hours, mean ± standard deviation. The procedure: Human multiple myeloma cell lines 8226, H929, JJN3, KMH11, KMS11, KMS18, LP1, MM1S, OPM2 and U266 were grown in Iscove modified Dulbecco's medium (IMDM). Human leukemia cell lines K562, OCI-AML2 and U937 were cultured in RPMI-1640 medium. Primary peripheral blood mononuclear cells were isolated from multiple myeloma patients by Ficoll density gradient centrifugation and bone marrow aspirates were obtained from multiple myeloma patients at the Princess Margaret Cancer Centre of the University Health Network (UHN; Toronto, ON, Canada). Primary cells were cultured in IMDM. The collection and use of human tissue for this study was approved by the UHN institutional ethics review board. All cell culture media were obtained from the Ontario Cancer Institute Tissue Culture Media Facility (Toronto, ON, Canada) and were supplemented with 10% fetal calf serum, […] (Hyclone, Logan, Utah). All cells were grown in a humidified incubator at 37° C. with 5% CO2.
Cellular viability was primarily assessed by 3-(4,5-dimethylthiazol-2-yl)-5-(3-carboxymethoxyphenyl)-2-(4-sulfophenyl)-2H-tetrazolium (MTS) assay according to the manufacturer's instructions (Promega; Madison, Wis.). Cells were first seeded at a density of 10,000 cells per well in tissue culture-treated 96-well plates. Two hours after seeding, cells were treated with compounds for 72 hours at concentrations as indicated. As a control, cells were treated with DMSO alone in every assay plate. Following treatment and the MTS assay, cell viability was independently confirmed by reading the optical density (O.D.) at 490 nm and by exclusion of trypan blue stain (Invitrogen; Burlington, ON, Canada). The viability of primary mononuclear cells was determined by staining with Annexin V.
Table 8 summarizes the data of representative compounds of Formula I for cell viability and CT-L proteasome activity with OCI-AML-2 and KMS-11 cell lines.

The subject of the next experiment is KM12. Put plainly: NCI screening panel, KM12 (Colon Cancer). It is filed as cell-based, human. The procedure: (§1) Representative compounds of Formula I were screened using the National Cancer Institute (NCI) screening panel, which consists of a panel of human tumor cell lines, representing leukemia, melanoma, and cancers of the lung, colon, ovary, breast, prostate and renal system.
(§2) After 24 h, two plates of each cell line are fixed in situ with TCA, to represent a measurement of the cell population for each cell line at the time of drug addition (Tz). Experimental drugs are solubilised in dimethyl sulfoxide at 400-fold the desired final maximum test concentration and stored frozen prior to use. At the time of drug addition, an aliquot of frozen concentrate is thawed and diluted to twice the desired final maximum test concentration with complete medium containing 50 μg/mL gentamicin. Additional four, 10-fold or ½ log serial dilutions are made to provide a total of five drug concentrations plus control. Aliquots of 100 μl of these different drug dilutions are added to the appropriate microtiter wells already containing 100 μl of medium, resulting in the required final drug concentrations.
(§3) Following drug addition, the plates are incubated for an additional 48 h at 37° C., 5% CO2, 95% air, and 100% relative humidity. For adherent cells, the assay is terminated by the addition of cold TCA (trichloroacetic acid). Cells are fixed in situ by the gentle addition of 50 μl of cold 50% (w/v) TCA (final concentration, 10% TCA) and incubated for 60 minutes at 4° C. The supernatant is discarded, and the plates are washed five times with tap water and air dried. Sulforhodamine B (SRB) solution (100 μl) at 0.4% (w/v) in 1% acetic acid is added to each well, and plates are incubated for 10 minutes at room temperature. After staining, unbound dye is removed by washing five times with 1% acetic acid and the plates are air dried. Bound stain is subsequently solubilised with 10 mM trizma base, and the absorbance is read on an automated plate reader at a wavelength of 515 nm. For suspension cells, the methodology is the same except that the assay is terminated by fixing settled cells at the bottom of the wells by gently adding 50 μl of 80% TCA (final concentration, 16% TCA). Using the seven absorbance measurements [time zero, (Tz), control growth, (C), and test growth in the presence of drug at the five concentration levels (Ti)], the percentage growth is calculated at each of the drug concentrations levels. Percentage growth inhibition is calculated as: [(Ti−Tz)/(C−Tz)]×100 for concentrations for which Ti>/=Tz and [(Ti−Tz)/Tz]×100 for concentrations for which Ti<Tz.
(§4) Three dose response parameters are calculated for each experimental agent. Growth inhibition of 50% (GI50) is calculated from [(Ti−Tz)/(C−Tz)]×100=50, which is the drug concentration resulting in a 50% reduction in the net protein increase (as measured by SRB staining) in control cells during the drug incubation. The drug concentration resulting in total growth inhibition (TGI) is calculated from Ti=Tz. The LC50 (concentration of drug resulting in a 50% reduction in the measured protein at the end of the drug treatment as compared to that at the beginning) indicating a net loss of cells following treatment is calculated from [(Ti−Tz)/Tz]×100=−50. Values are calculated for each of these three parameters if the level of activity is reached. However, if the effect is not reached or is exceeded, the value for that parameter is expressed as greater or less than the maximum or minimum concentration tested.

The next experiment relates to A498. Put plainly: NCI screening panel, A498 (Renal Cancer). It is filed as cell-based, human. The procedure: as §1, §2, §3, §4

The source of these data is patent US20150218212A1, “FLUORINATED EPOXYKETONE-BASED TETRAPEPTIDE COMPOUNDS AND USES THEREOF AS PROTEASOME INHIBITORS” (FLUORINOV PHARMA INC., priority 2012, published 2015).

For orientation: IC50 means the concentration that gives 50% inhibition. Read a low IC50 as greater potency. As for `CC(C)C[C@H](NC(=O)[C@H](COC(F)F)NC(=O)CN1CCOCC1)C(=O)N[C@@H](COC(F)F)C(=O)N[C@@H](CC(C)C)C(=O)[C@@]1(C)CO1` [Example 1, (2S)—N-[(1S)-1-(difluoromethoxymethyl)-2-[[(1S)-3-methyl-1-[(2R)-2-methyloxirane-2-carbonyl]butyl]amino]-2-oxo-ethyl]-2-[[(2S)-3-(difluoromethoxy)-2-[(2-morpholinoacetyl)amino]propanoyl]amino]-4-methyl-pentanamide], half-maximal inhibition with OCI-AML-2 (IC50) was put at 24.2 ± 7.2 nM. In addition, in the experiment on KM12, the Log10GI50 is −7.76, the Log10LC50 is listed as −7.10 and the Log10TGI50 is listed as −7.43. In the experiment with A498, this compound gave a Log10GI50 of −7.59, a Log10LC50 of −6.06 and a Log10TGI50 of −6.93.

For `CC(C)C[C@H](NC(=O)[C@H](COC(F)F)NC(=O)CN1CCOCC1)C(=O)N[C@@H](Cc1ccccc1)C(=O)N[C@@H](CC(C)C)C(=O)[C@@]1(C)CO1` [Example 2, (2S)-N-[(1S)-1-benzyl-2-[[(1S)-3-methyl-1-[(2R)-2-methyloxirane-2-carbonyl]butyl]-amino]-2-oxo-ethyl]-2-[[(2S)-3-(difluoromethoxy)-2-[(2-morpholinoacetyl)amino]propanoyl]amino]-4-methyl-pentanamide], the IC50 with OCI-AML-2 was 8.41 ± 2.24 nM. In the experiment on KM12, this compound returned a Log10GI50 of −7.85, a Log10LC50 of −7.01 and a Log10TGI50 of −7.43. In the experiment on A498, this compound gave a Log10GI50 of −7.67, a Log10LC50 of −6.23 and a Log10TGI50 of −7.12.

In the experiment on OCI-AML-2, `CC(C)C[C@H](NC(=O)[C@H](COC(F)F)NC(=O)CN1CCOCC1)C(=O)N[C@@H](Cc1ccccc1)C(=O)N[C@@H](Cc1ccccc1)C(=O)[C@@]1(C)CO1` [Example 3, (2S)-N-[(1S)-1-benzyl-2-[[(1S)-1-benzyl-2-[(2R)-2-methyloxiran-2-yl]-2-oxo-ethyl]amino]-2-oxo-ethyl]-2-[[(2S)-3-(difluoromethoxy)-2-[(2-morpholinoacetyl)-amino]propanoyl]amino]-4-methyl-pentan-amide] gave an IC50 of 16.3 ± 5.96 nM. For the same compound, in the experiment on KM12, the Log10GI50 is reported as below −8.00, the Log10LC50 is on record as −7.16 and the Log10TGI50 is −7.74. In the experiment with A498, this compound returned a Log10GI50 of −7.97, a Log10LC50 of −6.34 and a Log10TGI50 of −7.26.

`CC(C)C[C@H](NC(=O)[C@H](COC(F)F)NC(=O)CN1CCOCC1)C(=O)N[C@@H](COC(F)F)C(=O)N[C@@H](Cc1ccccc1)C(=O)[C@@]1(C)CO1` [Example 4, (2S)-N-[(1S)-2-[[(1S)-1-benzyl-2-[(2R)-2-methyloxiran-2-yl]-2-oxo-ethyl]amino]-1-(difluoromethoxymethyl)-2-oxo-ethyl]-2-[[(2S)-3-(difluoromethoxy)-2-[(2-mor-pholinoacetyl)amino]propanoyl]amino]-4 methyl-pentanamide] yielded an IC50 in the experiment on OCI-AML-2 of 54.7 ± 10.8 nM. In the experiment with KM12, this compound gave a Log10GI50 of −7.70, a Log10LC50 of −6.44 and a Log10TGI50 of −7.29. In the experiment on A498, this compound came in with a Log10GI50 of −7.42, a Log10LC50 of −5.65 and a Log10TGI50 of −6.61.

As for `CC(C)C[C@H](NC(=O)[C@H](COC(F)F)NC(=O)[C@H](COC(F)F)NC(=O)[C@H](CCc1ccccc1)NC(=O)CN1CCOCC1)C(=O)[C@@]1(C)CO1` [Example 7, (2S)-N-[(1S)-1-(difluoromethoxymethyl)-2-[[(1S)-1-(difluoromethoxymethyl)-2-[[(1S)-3-methyl-1-[(2R)-2-methyloxirane-2-carbo-nyl]butyl]amino]-2-oxo-ethyl]amino]-2-oxo-ethyl]-2-[(2-morpholinoacetyl)amino]-4-phenyl-butanamide], half-maximal inhibition in the experiment on OCI-AML-2 (IC50) required 61.1 ± 10.1 nM. Moreover, in the experiment on KM12, the Log10GI50 is −7.78, the Log10LC50 is −7.11 and the Log10TGI50 was −7.45. Also, in the experiment on A498, the Log10GI50 was −7.40, the Log10LC50 is −6.06 and the Log10TGI50 is recorded as −6.75.

In turn, `CC(C)C[C@H](NC(=O)[C@H](Cc1ccccc1)NC(=O)[C@H](COC(F)F)NC(=O)[C@H](COC(F)F)NC(=O)CN1CCOCC1)C(=O)[C@@]1(C)CO1` [Example 11, (2S)-2-[[(2S)-3-(difluoromethoxy)-2-[[(2S)-3-(difluoromethoxy)-2-[(2-morpholinoacetyl)-amino]propanoyl]amino]propanoyl]amino]-N-[(1S)-3-methyl-1-[(2R)-2-methyloxirane-2-carbonyl]butyl]-3-phenyl-propanamide] showed an IC50 in the experiment with OCI-AML-2 of 15.7 ± 3.56 nM. In the experiment with KM12, this compound yielded a Log10GI50 of −7.73, a Log10LC50 of −7.07 and a Log10TGI50 of −7.40. In the experiment with A498, this compound registered a Log10GI50 of −7.64, a Log10LC50 of −6.08 and a Log10TGI50 of −7.00.

As to `CC(C)C[C@H](NC(=O)[C@H](COC(F)F)NC(=O)[C@H](COC(F)F)NC(=O)[C@H](COC(F)F)NC(=O)CN1CCOCC1)C(=O)[C@@]1(C)CO1` [Example 17, (2S)-3-(difluoromethoxy)-N-[(1S)-1-(difluoromethoxymethyl)-2-[[(1S)-1-(difluoro-methoxymethyl)-2-[[(1S)-3-methyl-1-[(2R)-2-methyloxirane-2-carbonyl]butyl]amino]-2-oxo-ethyl]amino]-2-oxo-ethyl]-2-[(2-mor-pholinoacetyl)amino]-propanamide], the concentration for half-maximal inhibition (IC50) in the experiment on OCI-AML-2 worked out at 136 ± 36.8 nM. Besides, in the experiment on KM12, the Log10GI50 was −7.34, the Log10LC50 is reported as −6.24 and the Log10TGI50 is given as −6.73. In the experiment on A498, this compound showed a Log10GI50 of −6.87, a Log10LC50 of −5.44 and a Log10TGI50 of −6.22.
